# Where two headings read alike, the source gives them in different places.
# Biological target: T1, cloned human dopamine D3 receptors (Homo sapiens, UniProt P35462)
# T1 construct: expressed in transfected cells; membrane homogenate
# Test: [N-Methyl-3H]Spiroperidol binding to cloned human dopamine D3 receptors (Protocol 1)
# In short: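 Membranes from CHO cells stably expressing cloned human D3 receptor were used for [N-methyl-3H]spiroperidol (60-90 Ci/mmol) binding. Assay buffer was 0.05 M Tris HCl pH 7.7 with 120 mM NaCl, 5 mM KCl, 2 mM CaCl2 and 1 mM MgCl2, optionally 0.1% ascorbic acid; total ligand concentration calculated from added CPM.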
# [1] = the 13th table, unit inferred, read-out: D3Ki
# [2] = the 19th table, read-out: D3 Ki
# [3] = the 22nd table, read-out: D3 Ki
# [4] = the 20th table, read-out: D3 Ki
# T1 sequence (P35462 whole entry): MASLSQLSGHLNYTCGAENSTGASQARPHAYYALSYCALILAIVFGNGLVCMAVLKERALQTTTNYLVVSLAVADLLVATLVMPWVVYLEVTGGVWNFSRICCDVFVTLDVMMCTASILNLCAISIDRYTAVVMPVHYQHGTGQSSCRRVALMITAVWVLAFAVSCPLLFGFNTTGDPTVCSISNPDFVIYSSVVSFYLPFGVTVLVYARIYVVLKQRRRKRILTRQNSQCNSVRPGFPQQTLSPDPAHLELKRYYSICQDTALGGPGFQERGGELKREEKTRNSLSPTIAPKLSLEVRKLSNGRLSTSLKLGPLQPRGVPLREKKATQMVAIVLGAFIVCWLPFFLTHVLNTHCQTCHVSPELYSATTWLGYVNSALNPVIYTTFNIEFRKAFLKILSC
compound,measurement,setting,value
O=C(NCCCCN1CCCN(c2csc3cc(F)ccc23)CC1)c1ccccc1F [compound 822195],Ki,[1],4.7 nM
COc1ccc(C(=O)NCCCCN2CCCN(c3csc4cc(F)ccc34)CC2)cc1OC [compound 822196],Ki,[1],5 nM
COc1cccc(C(=O)NCCCCN2CCCN(c3csc4cc(F)ccc34)CC2)c1 [compound 822197],Ki,[1],6.5 nM
Cc1ccccc1C(=O)NCCCCN1CCCN(c2csc3cc(F)ccc23)CC1 [compound 822199],Ki,[1],3.8 nM
O=C(NCCCCN1CCCN(c2csc3cc(F)ccc23)CC1)c1cnc2ccccc2n1 [compound 822200],Ki,[1],10.6 nM
O=C(NCCCCN1CCCN(c2csc3cc(F)ccc23)CC1)c1cccnc1Cl [compound 822201],Ki,[1],15 nM
O=C(Nc1ccc(CN2CCN(c3csc4cc(F)ccc34)CC2)cc1)c1ccccc1F [compound 822207],Ki,[2],221 nM
COc1ccc(C(=O)Nc2ccc(CN3CCN(c4csc5cc(F)ccc45)CC3)cc2)cc1OC [compound 822208],Ki,[2],183 nM
COc1cccc(C(=O)Nc2ccc(CN3CCN(c4csc5cc(F)ccc45)CC3)cc2)c1 [compound 822209],Ki,[2],360 nM
O=C(Nc1ccc(CN2CCN(c3csc4cc(F)ccc34)CC2)cc1)c1ccc(-c2ccccc2)cc1 [compound 822210],Ki,[2],39.5 nM
Cc1ccccc1C(=O)Nc1ccc(CN2CCN(c3csc4cc(F)ccc34)CC2)cc1 [compound 822212],Ki,[2],162 nM
O=C(Nc1ccc(CN2CCN(c3csc4cc(F)ccc34)CC2)cc1)c1cccs1 [compound 822213],Ki,[2],63 nM
COc1ccccc1C(=O)NCCCCN1CCN(c2nn(C(=O)c3ccccc3OC)c3ccsc23)CC1 [compound 825145],Ki,[3],174 nM
Cc1ccccc1C(=O)NCCCCN1CCN(c2nn(C(=O)c3ccccc3C)c3ccsc23)CC1 [compound 825146],Ki,[3],188 nM
Cc1ccc(C(=O)NCCCCN2CCN(c3nn(C(=O)c4ccc(C)cc4)c4ccsc34)CC2)cc1 [compound 825147],Ki,[3],62.7 nM
O=C(NCCCCN1CCN(c2nn(C(=O)c3ccc(F)cc3)c3ccsc23)CC1)c1ccc(F)cc1 [compound 825148],Ki,[3],36.4 nM
O=C(NCCCCN1CCN(c2nn(C(=O)c3ccc(C(F)(F)F)cc3)c3ccsc23)CC1)c1ccc(C(F)(F)F)cc1 [compound 825149],Ki,[3],164 nM
O=C(NCCCCN1CCN(c2nn(C(=O)c3ccc(F)c(F)c3)c3ccsc23)CC1)c1ccc(F)c(F)c1 [compound 825150],Ki,[3],199 nM
O=C(NCCCCN1CCN(c2n[nH]c3ccsc23)CC1)c1ccc(-c2ccccc2)cc1 [compound 825153],Ki,[3],8.57 nM
COc1ccccc1C(=O)NCCCCN1CCN(c2n[nH]c3ccsc23)CC1 [compound 825159],Ki,[3],92.1 nM
Cc1ccccc1C(=O)NCCCCN1CCN(c2n[nH]c3ccsc23)CC1 [compound 825161],Ki,[3],244 nM
O=C(NCCCCN1CCN(c2n[nH]c3ccsc23)CC1)c1ccc(F)cc1 [compound 825162],Ki,[3],114 nM
O=C(NCCCCN1CCN(c2n[nH]c3ccsc23)CC1)c1ccc(F)c(F)c1 [compound 825163],Ki,[3],221 nM
O=C(NCCCCN1CCN(c2nn(C(=O)c3cc4ccccc4s3)c3ccsc23)CC1)c1cc2ccccc2s1 [compound 825164],Ki,[3],10.4 nM
O=C(Nc1cccc(CN2CCN(c3csc4cc(F)ccc34)CC2)c1)c1ccsc1 [compound 825654],Ki,[2],245 nM
O=C(Nc1cccc(CN2CCN(c3csc4cc(F)ccc34)CC2)c1)c1ccc2[nH]nnc2c1 [compound 825656],Ki,[2],33 nM
COc1cc(OC)cc(C(=O)NCc2ccoc2CN2CCN(c3csc4cc(F)ccc34)CC2)c1 [compound 825837],Ki,[4],190 nM
O=C(NCc1ccoc1CN1CCN(c2csc3cc(F)ccc23)CC1)c1cccc(C(F)(F)F)c1 [compound 825841],Ki,[4],146 nM
COc1ccccc1C(=O)NCc1ccoc1CN1CCN(c2csc3cc(F)ccc23)CC1 [compound 825842],Ki,[4],532 nM
O=C(NCc1ccoc1CN1CCN(c2csc3cc(F)ccc23)CC1)c1cc2ccccc2s1 [compound 825844],Ki,[4],601 nM
O=C(NCc1ccoc1CN1CCN(c2csc3cc(F)ccc23)CC1)c1ccc(F)cc1 [compound 825845],Ki,[4],206 nM
O=C(NCc1ccoc1CN1CCN(c2csc3cc(F)ccc23)CC1)c1ccc(-c2ccccc2)cc1 [compound 825848],Ki,[4],250 nM
O=C(NCc1ccoc1CN1CCN(c2csc3cc(F)ccc23)CC1)c1cccnc1Cl [compound 825853],Ki,[4],237 nM
COc1ccc(C(=O)NCC2C(CN3CCN(c4csc5cc(C(F)(F)F)ccc45)CC3)C2(C)C)cc1OC (stereo not drawn) [compound 826272],Ki,read-out: D3K1,62 nM
CC1(C)C(CNC(=O)c2ccc(F)cc2)C1CN1CCN(c2csc3cc(C(F)(F)F)ccc23)CC1 (stereo not drawn) [compound 826273],Ki,read-out: D3K1,51 nM
CC1(C)C(CNC(=O)c2cccc(F)c2)C1CN1CCN(c2csc3cc(C(F)(F)F)ccc23)CC1 (stereo not drawn) [compound 826274],Ki,read-out: D3K1,67 nM

# Reference: patent US7550469B2, “Heterocyclic amide derivatives and their use as dopamine D3 receptor ligands” (Aventis Pharmaceuticals Inc., priority 2001, dated 2009)
